Laboratory results: patent US5811425A, “Heterocyclic compounds as COX-2 inhibitors” (Abbott Laboratories, priority 1997, dated 1998)
Structures can show the parent of a compound that is named as a salt.

What was measured:
[1] = biological target: T1, recombinant human PGHS-1 (COX-1) (Homo sapiens, UniProt P23219); test: Recombinant human PGHS-1 enzyme assay (PGE2 production by EIA); assay type: biochemical; settings: 100 uM compound; 60 min preincubation; 10 uM arachidonic acid; read-out: COX-1 (% inhib. @ 100 uM)
T1 construct: made in house; host or cells: baculovirus/Sf9 insect cells (microsomes)
Method: Recombinant Human PGHS-l and -2 Enzyme Assays:
The reaction was allowed to run for 2.5 minutes at room temperature prior to quenching with HCl and neutralization with NaOH. PGE2 production in the presence and absence of the drug was determined by Enzyme ImmunoAssay ("EIA") analysis as described below.
(§1) EIA Determination of Prostaglandins
(§2) EIA reagents for prostaglandin determination were purchased from Perspective Diagnostics, Cambridge, Mass. PGE2 levels in lavage fluids were determined after the samples were dried under nitrogen and reconstituted with assay buffer. PGE2 levels in enzyme assays or cell culture media were measured against standards prepared in the same milieu. The immunoassays were conducted as recommended by the manufacturer. The EIA was conducted in 96 well microtiter plates (Nunc Roskilde, Denmark) and optical density measured using a microplate reader (Vmax, Molecular Devices Corp., Menlo Park, Calif.).

[2] = biological target: T2, recombinant human PGHS-2 (COX-2) (Homo sapiens, UniProt P35354); test: Recombinant human PGHS-2 enzyme assay (PGE2 production by EIA); assay type: biochemical; settings: 60 min preincubation, 10 uM arachidonic acid; for inhibition at 0.1 µM: 100 nM compound
T2 construct: made in house; host or cells: baculovirus/Sf9 insect cells (microsomes)
T2 sequence (P35354 18-604): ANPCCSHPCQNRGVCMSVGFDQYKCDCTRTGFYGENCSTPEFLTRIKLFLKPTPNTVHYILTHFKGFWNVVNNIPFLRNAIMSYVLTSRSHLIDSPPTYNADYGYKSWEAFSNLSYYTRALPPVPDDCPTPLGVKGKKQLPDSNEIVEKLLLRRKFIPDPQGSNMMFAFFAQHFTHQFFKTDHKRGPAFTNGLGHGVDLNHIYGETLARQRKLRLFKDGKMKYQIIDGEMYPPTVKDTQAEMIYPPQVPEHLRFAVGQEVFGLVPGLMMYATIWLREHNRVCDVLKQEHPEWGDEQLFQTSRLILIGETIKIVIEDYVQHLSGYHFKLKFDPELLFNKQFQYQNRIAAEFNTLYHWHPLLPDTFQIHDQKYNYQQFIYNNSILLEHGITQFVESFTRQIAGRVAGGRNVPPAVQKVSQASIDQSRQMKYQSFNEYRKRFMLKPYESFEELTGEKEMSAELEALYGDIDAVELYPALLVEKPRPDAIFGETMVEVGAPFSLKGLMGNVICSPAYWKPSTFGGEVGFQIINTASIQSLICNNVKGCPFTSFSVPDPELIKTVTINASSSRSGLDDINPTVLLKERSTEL
Method: Recombinant Human PGHS-l and -2 Enzyme Assays: A compound of the invention was dissolved in DMSO (3.3%v/v) and preincubated with microsomes from recombinant human PGHS-1 and-2 expressed in the baculovirus/Sf9 cell system (Gierse, J. […] The reaction was allowed to run for 2.5 minutes at room temperature prior to quenching with HCl and neutralization with NaOH. PGE2 production in the presence and absence of the drug was determined by Enzyme ImmunoAssay ("EIA") analysis as described below. EIA Determination of Prostaglandins EIA reagents for prostaglandin determination were purchased from Perspective Diagnostics, Cambridge, Mass. PGE2 levels in lavage fluids were determined after the samples were dried under nitrogen and reconstituted with assay buffer. PGE2 levels in enzyme assays or cell culture media were measured against standards prepared in the same milieu. The immunoassays were conducted as recommended by the manufacturer. The EIA was conducted in 96 well microtiter plates (Nunc Roskilde, Denmark) and optical density measured using a microplate reader (Vmax, Molecular Devices Corp., Menlo Park, Calif.).

[3] = test system: carragennan induced pleurisy; test: Carragennan Induced Pleurisy Test (CIP); assay type: in vivo, Sprague-Dawley rats; settings: Rattus norvegicus; rats, oral 10 mg/kg, 30 min before carrageenan; prostaglandin in pleural lavage at 4 h
Method: as §1, §2
Carragennan Induced Pleurisy Test (CIP)
Four hours after carrageenan injection, the animals were euthanized and their pleural cavities lavaged with ice cold saline. […] Prostaglandin levels in the methanol lavage fluid were then determined by EIA.

T1 sequence (P23219 24-599): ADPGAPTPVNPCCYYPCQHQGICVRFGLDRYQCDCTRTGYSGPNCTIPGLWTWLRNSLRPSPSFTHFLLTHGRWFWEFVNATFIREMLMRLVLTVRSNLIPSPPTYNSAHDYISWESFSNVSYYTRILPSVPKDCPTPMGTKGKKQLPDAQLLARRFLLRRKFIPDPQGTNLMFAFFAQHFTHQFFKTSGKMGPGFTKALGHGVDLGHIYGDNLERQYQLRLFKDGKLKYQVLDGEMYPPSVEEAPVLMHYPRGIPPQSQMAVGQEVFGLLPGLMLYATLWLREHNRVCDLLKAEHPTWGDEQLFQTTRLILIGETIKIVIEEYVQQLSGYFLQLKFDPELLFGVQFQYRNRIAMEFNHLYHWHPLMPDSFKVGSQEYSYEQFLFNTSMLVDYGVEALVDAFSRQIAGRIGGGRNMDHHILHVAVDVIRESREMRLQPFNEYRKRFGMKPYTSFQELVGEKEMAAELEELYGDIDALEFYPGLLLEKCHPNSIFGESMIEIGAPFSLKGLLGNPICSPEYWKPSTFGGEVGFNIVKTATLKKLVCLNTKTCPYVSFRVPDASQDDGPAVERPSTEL

inhibition at 100 µM [1] [%]	IC50 [2] [nM]	inhibition at 0.1 µM [2] [%]	Compound	inhibition in vivo at 10 mg/kg [3] [%]
16	14	–	COc1ccc2c(c1)c(Cc1nc(-c3ccc(Cl)cc3)cs1)c(C)n2C(=O)c1ccc(Cl)cc1 [Example 5, 1-(4-Chlorobenzoyl)-3-[4-(4-Chlorophenyl)thiazol-2-ylmethyl]-5-methoxy-2-methylindole]	–
20	–	82	COc1ccc2c(c1)c(Cc1nc(-c3ccc(F)cc3F)cs1)c(C)n2C(=O)c1ccc(Cl)cc1 [Example 2, 1-(4-Chlorobenzoyl)-3-[4-(2.4-difluorophenyl)thiazol-2-ylmethyl]-5-methoxy-2-methylindole]	16
49	–	77	COc1ccc2c(c1)c(Cc1csc(-c3ccncc3)n1)c(C)n2C(=O)c1ccc(Cl)cc1 [Example 13, 1-(4-Chlorobenzoyl)-5-methoxy-2-methyl-3-[2-(4-pyridyl)thiazol-4-ylmethyl]indole]	14
35	8	–	COc1ccc2c(c1)c(Cc1nc(-c3cccc(Br)c3)cs1)c(C)n2C(=O)c1ccc(Cl)cc1 [Example 4, 3-[4-(3-bromophenyl)thiazol-2-ylmethyl]-1-(4-Chlorobenzoyl)-5-methoxy-2-methylindole]	24
40	20	–	COc1ccc2c(c1)c(Cc1csc(-c3cccnc3)n1)c(C)n2C(=O)c1ccc(Cl)cc1 [Example 12, 1-(4-Chlorobenzoyl)-5-methoxy-2-methyl-3-[2-(3-pyridyl)thiazol-4-ylmethyl]indole]	–
23	–	48	COc1ccc2c(c1)c(Cc1nc(-c3ccc(O)c([N+](=O)[O-])c3)cs1)c(C)n2C(=O)c1ccc(Cl)cc1 [Example 11, 1-(4-Chlorobenzoyl)-3-[4-(4-hydroxy-3-nitrophenyl)thiazol-2-ylmethyl]-5-methoxy-2-methylindole]	30
15	30	–	COc1ccc2c(c1)c(Cc1nc(-c3ccc(Br)cc3)cs1)c(C)n2Cc1ccc(Br)cc1 [Example 15, 1-(4-bromobenzyl)-3-[4-(4-bromophenyl)thiazol-2-ylmethyl]-5-methoxy-2-methylindole]	–
26	12	–	COc1ccc2c(c1)c(Cc1nc(-c3ccc([N+](=O)[O-])cc3)cs1)c(C)n2C(=O)c1ccc(Cl)cc1 [Example 6, 1-(4-Chlorobenzoyl)-5-methoxy-2-methyl-3-[4-(4-nitrophenyl)thiazol-2-ylmethyl]indole]	–
15	7	–	COc1ccc2c(c1)c(Cc1nc(-c3ccc(Cl)cc3)cs1)c(C)n2Cc1ccc(Br)cc1 [Example 14, 1-(4-bromobenzyl)-3-[4-(4-Chlorophenyl)thiazol-2-ylmethyl]-5-methoxy-2-methylindole]	36
40	60	–	COc1ccc2c(c1)c(Cc1nc(-c3ccc(S(C)(=O)=O)cc3)cs1)c(C)n2C(=O)c1ccc(Cl)cc1 [Example 9, 1-(4-Chlorobenzoyl)-3-[4-(4-methanesulfonylphenyl)thiazol-2-ylmethyl]-5-methoxy-2-methylindole hydrobromide salt]	–
21	7	–	COc1ccc2c(c1)c(Cc1nc(-c3ccc4ccccc4c3)cs1)c(C)n2C(=O)c1ccc(Cl)cc1 [Example 3, 1-(4-Chlorobenzoyl)-5-methoxy-2-methyl-3-[4-(2-naphthyl)thiazol-2-ylmethyl]indole]	–
31	–	85	COc1ccc2c(c1)c(Cc1nc(-c3cccc([N+](=O)[O-])c3)cs1)c(C)n2C(=O)c1ccc(Cl)cc1 [Example 10, 1-(4-Chlorobenzoyl)-5-methoxy-2-methyl-3-[4-(3-nitrophenyl)thiazol-2-ylmethyl]indole]	–
21	7	–	COc1ccc2c(c1)c(Cc1nc(-c3ccc([N+](=O)[O-])cc3)cs1)c(C)n2Cc1ccc(Br)cc1 [Example 16, 1-(4-bromobenzyl)-5-methoxy-2-methyl-3-[4-(4-nitrophenyl)thiazol-2-ylmethyl]indole]	31
36	12	–	COc1ccc2c(c1)c(Cc1nc(-c3ccc(F)cc3)cs1)c(C)n2C(=O)c1ccc(Cl)cc1 [Example 8, 1-(4-Chlorobenzoyl)-3-[4-(4-fluorophenyl)thiazol-2-ylmethyl]-5-methoxy-2-methylindole]	–

Compound	inhibition at 100 µM [1] [%]	IC50 [2] [nM]	inhibition at 0.1 µM [2] [%]	inhibition in vivo at 10 mg/kg [3] [%]
COc1ccc2c(c1)c(Cc1nc(-c3csc4ccccc34)cs1)c(C)n2C(=O)c1ccc(Cl)cc1 [Example 7, 3-[4-(3-benzothienyl)thiazol-2-ylmethyl]-1-(4-Chlorobenzoyl)-5-methoxy-2-methylindole]	23	1	–	20
COc1ccc2c(c1)c(Cc1nc(-c3ccc(Br)cc3)cs1)c(C)n2C(=O)c1ccc(Cl)cc1 [Example 1, 3-[4-(4-bromophenyl)thiazol-2-ylmethyl]-1-(4-Chlorobenzoyl)-5-methoxy-2-methylindole]	32	0.3	–	43
